Results as given in patent US20100234363A1, “HETEROCYCLIC DERIVATIVE HAVING INHIBITORY ACTIVITY ON TYPE-I 11 DATA-HYDROXYSTEROID DEHYDROGENASE” (INSTITUTE OF MEDICINAL MOLECULAR DESIGN, INC., priority 2007, published 2010).

Legend:
Mouse 11β-HSD 1 = Mouse 11β-HSD 1 (Mus musculus, UniProt P50172); experiment: Evaluation of compound against mouse 11β-HSD1 (HTRF corticosterone assay); format: biochemical; settings: mouse 11β-HSD1, 11-dehydrocorticosterone 2 μM substrate, 37° C. 2 hours
Experimental: Evaluation Method of 11β-HSD1 Inhibitor (Evaluation of Compound Against Mouse 11β-HSD 1)
(§1) After preincubating an inhibitor in a reaction solution consisting of 50 mM sodium phosphate buffer (pH 7.6), bovine serum albumin (1 mg/mL), NADPH (0.42 mg/mL), glucose-6-phosphate (1.26 mg/mL), glucose-6-phosphate dehydrogenase, and an enzyme at room temperature for 30 minutes, 11-dehydrocorticosterone (2 μM) which is a substrate was added (total amount 10 μL). After reacting at 37° C. for 2 hours, an XL-665-labeled cortisol solution (5 μL), and a Cryptate-labeled anti-cortisol antibody solution (5 μL) were added, a reaction was performed at room temperature for 2 hours, and fluorescence intensity (HTRF method) was measured. A corticosterone concentration was calculated from a standard curve prepared using a known concentration of corticosterone for each assay.
Taking a concentration of corticosterone generated in the absence of the inhibitor as a control value, 50% inhibitory concentration (IC50 value) of the inhibitor against 11β-HSD1 was calculated from an inhibition curve plotting inhibition rate against the control value at each concentration of the inhibitor.

Human 11β-HSD1 = Human 11β-HSD1 (Homo sapiens, UniProt P28845); experiment: Evaluation of compound against human 11β-HSD1 (HTRF cortisol assay); format: biochemical; settings: human 11β-HSD1, cortisone 5 μM substrate, 37° C. 2 hours
Experimental: Evaluation Method of 11β-HSD1 Inhibitor (Evaluation of Compound Against Human 11β-HSD1)
as §1, with “dehydrogenase” for “dehydrogenase,”, “cortisone (5” for “11-dehydrocorticosterone (2”, “cortisol” for “corticosterone”
Taking a concentration of cortisol generated in the absence of the inhibitor as a control value, 50% inhibitory concentration (IC50 value) of the inhibitor against 11β-HSD1 was calculated from an inhibition curve plotting inhibition rate against the control value at each concentration of an inhibitor.

Chain of Human 11β-HSD1 (P28845 whole entry): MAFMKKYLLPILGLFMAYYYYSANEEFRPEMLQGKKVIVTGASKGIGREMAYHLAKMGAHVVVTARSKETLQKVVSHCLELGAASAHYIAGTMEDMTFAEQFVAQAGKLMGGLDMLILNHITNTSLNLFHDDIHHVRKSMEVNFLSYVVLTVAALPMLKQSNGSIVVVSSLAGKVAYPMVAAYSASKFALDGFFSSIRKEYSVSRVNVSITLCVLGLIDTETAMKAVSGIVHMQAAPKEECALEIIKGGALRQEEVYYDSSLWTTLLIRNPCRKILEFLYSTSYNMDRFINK
Chain of Mouse 11β-HSD 1 (P50172 whole entry): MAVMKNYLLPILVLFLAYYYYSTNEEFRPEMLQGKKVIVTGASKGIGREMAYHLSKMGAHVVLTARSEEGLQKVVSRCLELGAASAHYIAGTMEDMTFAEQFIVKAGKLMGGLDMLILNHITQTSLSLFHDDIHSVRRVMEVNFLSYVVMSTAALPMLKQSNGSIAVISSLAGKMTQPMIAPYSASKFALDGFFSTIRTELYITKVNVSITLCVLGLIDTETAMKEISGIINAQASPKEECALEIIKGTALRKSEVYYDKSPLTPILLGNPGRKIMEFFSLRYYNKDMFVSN

IC50 (Mouse 11β-HSD 1) [nM] | IC50 (Human 11β-HSD1) [nM] | Compound
1490 | 190 | CN(C1=NC(=O)C2CCCCCC2S1)C(C)(C)C (stereo not drawn) [Compound I-158]
1640 | 11 | CCN(C1=NC(=O)C2CC(C)(C)CCC2S1)N1CCCCCC1 (stereo not drawn) [Compound I-195]
820 | 32 | CCN(C1=NC(=O)C2CC(C)(C)CCC2S1)c1ccccc1C(C)(C)C (stereo not drawn) [Compound I-175]
